Assay in all cases: initial rates of NPβglc hydrolysis at […] nm, Lineweaver-Burk replots
Common to all, as to type: biochemical

For assay [1], the target named is T1, Sfβgly (Spodoptera frugiperda, UniProt O61594, N249A).
T1 construct: only point mutants assayed here

In assay [2] the target is T2, Sfβgly (Spodoptera frugiperda, UniProt O61594, F251A).
T2 construct: only point mutants assayed here

Assay [3] addresses T3, Sfβgly (Spodoptera frugiperda, UniProt O61594, N249Q).
T3 construct: only point mutants assayed here

In assay [4] the target is T4, Sfβgly (Spodoptera frugiperda, UniProt O61594, S247Y).
T4 construct: only point mutants assayed here
T4 sequence (O61594 17-509 limits assumed, stated change not applied): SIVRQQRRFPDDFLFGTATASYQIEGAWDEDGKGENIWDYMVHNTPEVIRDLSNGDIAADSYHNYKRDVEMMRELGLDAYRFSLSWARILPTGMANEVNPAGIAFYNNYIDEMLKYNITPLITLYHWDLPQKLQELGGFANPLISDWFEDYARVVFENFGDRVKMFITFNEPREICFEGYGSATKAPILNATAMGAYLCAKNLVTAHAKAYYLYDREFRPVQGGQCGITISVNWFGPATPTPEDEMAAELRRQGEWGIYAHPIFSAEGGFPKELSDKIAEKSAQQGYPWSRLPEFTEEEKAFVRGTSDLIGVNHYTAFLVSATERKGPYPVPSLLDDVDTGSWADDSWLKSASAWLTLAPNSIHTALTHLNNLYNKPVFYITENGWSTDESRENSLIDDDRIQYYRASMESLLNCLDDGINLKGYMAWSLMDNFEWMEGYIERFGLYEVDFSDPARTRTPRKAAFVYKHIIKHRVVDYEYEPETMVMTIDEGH

T3 sequence (O61594 17-509 limits assumed, stated change not applied): as above
T2 sequence (O61594 17-509 limits assumed, stated change not applied): as above
T1 sequence (O61594 17-509 limits assumed, stated change not applied): as above

Turning to `NC(CO)(CO)CO` [Tris, 2‐amino‐2‐(hydroxymethyl)‐1,3‐propanediol], the Ki was determined as 0.6 mM on Sfβgly [1], 10 mM on Sfβgly [2], 32 mM at Sfβgly [3] and 71 mM on Sfβgly [4].

Consider `c1c[nH]cn1` [imidazole], for which the Ki at Sfβgly [1] was determined as 18 mM; at Sfβgly [2], 12 mM; at Sfβgly [3], 39 mM; at Sfβgly [4], 35 mM.
